From the supplement of paper PMC11208160

Experiment: recombinant UMI read abundance after kanamycin selection (control-corrected) (log10(CPM+1)); higher = more efficient recombination; extreme values may be limits of the assay; sequences stand for … in AGTGCAGAGAAAATCGGCCAGTTTTCTCTGCCTGCAGTCCGCATGCCGTGGGACCCCTTGGGTTCTAACCTGTTGCCTAGATTTATGCAGCGGACTGCCTTTCTCCCAAAGTGATAAACCGG…AGGTTGGTTTCACT; site = the 11-nt donor
Experimental: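 Pooled E. coli donor-specificity screen for the IS621 bridge recombinase. Each library member carries a reprogrammed 11-nt donor and a full-length LE bridge RNA expressed in cis from the natural promoter, with a paired donor-binding loop (8-nt LDG + 4-nt RDG) and a target-binding loop fixed to T5. It is co-electroporated with a T5 target plasmid; recombinase is induced with 0.07 mM IPTG and recombinants are selected on kanamycin. UMIs are counted as CPM, averaged over two biological replicates and corrected by the unselected control. Molecule = full bridge RNA written as DNA, built from the T5 scaffold: LDG = donor specificity nt 1-8, RDG = reverse complement of nt 8-11.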
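Note: IS621 bridge recombinase in Escherichia coli cells against a fixed T5 target plasmid.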

Sequence	recombinant UMI read abundance (log10)
ACAGCATCATGGACCGGTTTTCCCGGTAATCCGTATTTGCG (site ACAGCATCTCG)	2.33
ACAGCATCATGGACCGGTTTTCCCGGTAATCCGTATTTGCG (site ACAGTATCTTG)	0
ACAGCTTCATGGACCGGTTTTCCCGGTAATCCGTATTTGCA (site ACAGCTTCTTG)	2.59
ACAGCTTCATGGACCGGTTTTCCCGGTAATCCGTATTTGCA (site ACAGTATCTTG)	2.16
ACAGTACCATGGACCGGTTTTCCCGGTAATCCGTATTTGAA (site ACAGTACCTTT)	0.501
ACAGTACCATGGACCGGTTTTCCCGGTAATCCGTATTTGAA (site ACAGTATCTTG)	0
ACAGTATCATGGACCGGTTTTCCCGGTAATCCGTATTTGCA (site AAAATATCTTG)	1.79
ACAGTATCATGGACCGGTTTTCCCGGTAATCCGTATTTGCA (site AAAGAATCTTG)	1.57
ACAGTATCATGGACCGGTTTTCCCGGTAATCCGTATTTGCA (site AAAGTAACTTG)	0.587
ACAGTATCATGGACCGGTTTTCCCGGTAATCCGTATTTGCA (site AAAGTATCTAG)	0
ACAGTATCATGGACCGGTTTTCCCGGTAATCCGTATTTGCA (site AAAGTATCTTC)	0.00296
ACAGTATCATGGACCGGTTTTCCCGGTAATCCGTATTTGCA (site AAAGTATCTTG)	2.1
ACAGTATCATGGACCGGTTTTCCCGGTAATCCGTATTTGCA (site AAAGTCTCTTG)	0.0144
ACAGTATCATGGACCGGTTTTCCCGGTAATCCGTATTTGCA (site AACGTATCTTG)	2.46
ACAGTATCATGGACCGGTTTTCCCGGTAATCCGTATTTGCA (site ACAAAATCTTG)	0.724
ACAGTATCATGGACCGGTTTTCCCGGTAATCCGTATTTGCA (site ACAATAACTTG)	0
ACAGTATCATGGACCGGTTTTCCCGGTAATCCGTATTTGCA (site ACAATATCTAG)	0.00607
ACAGTATCATGGACCGGTTTTCCCGGTAATCCGTATTTGCA (site ACAATATCTTC)	0.00345

Sequence	recombinant UMI read abundance (log10)
ACAGTATCATGGACCGGTTTTCCCGGTAATCCGTATTTGCA (site ACAATATCTTG)	2.8
ACAGTATCATGGACCGGTTTTCCCGGTAATCCGTATTTGCA (site ACAATCTCTTG)	0
ACAGTATCATGGACCGGTTTTCCCGGTAATCCGTATTTGCA (site ACACCATCTTG)	0.786
ACAGTATCATGGACCGGTTTTCCCGGTAATCCGTATTTGCA (site ACACTAGCTTG)	0.00526
ACAGTATCATGGACCGGTTTTCCCGGTAATCCGTATTTGCA (site ACACTATCTCG)	0
ACAGTATCATGGACCGGTTTTCCCGGTAATCCGTATTTGCA (site ACACTATCTTA)	0
ACAGTATCATGGACCGGTTTTCCCGGTAATCCGTATTTGCA (site ACACTATCTTG)	1.61
ACAGTATCATGGACCGGTTTTCCCGGTAATCCGTATTTGCA (site ACACTTTCTTG)	0
ACAGTATCATGGACCGGTTTTCCCGGTAATCCGTATTTGCA (site ACAGAAACTTG)	0
ACAGTATCATGGACCGGTTTTCCCGGTAATCCGTATTTGCA (site ACAGAATCTAG)	0
ACAGTATCATGGACCGGTTTTCCCGGTAATCCGTATTTGCA (site ACAGAATCTTC)	0.287
ACAGTATCATGGACCGGTTTTCCCGGTAATCCGTATTTGCA (site ACAGAATCTTG)	2.53
ACAGTATCATGGACCGGTTTTCCCGGTAATCCGTATTTGCA (site ACAGACTCTTG)	1.68
ACAGTATCATGGACCGGTTTTCCCGGTAATCCGTATTTGCA (site ACAGCAGCTTG)	0.00322
ACAGTATCATGGACCGGTTTTCCCGGTAATCCGTATTTGCA (site ACAGCATCTCG)	0.00554
ACAGTATCATGGACCGGTTTTCCCGGTAATCCGTATTTGCA (site ACAGCATCTTA)	0.00439
ACAGTATCATGGACCGGTTTTCCCGGTAATCCGTATTTGCA (site ACAGCATCTTG)	1.64
ACAGTATCATGGACCGGTTTTCCCGGTAATCCGTATTTGCA (site ACAGCTTCTTG)	0
